Experimental data taken from patent US8063069B2, “Prucalopride-N-oxide” (Janssen Pharmaceutica N.V., priority 2002, dated 2011).
Where two headings read alike, the source gives them in different places.

Assays:
[1] = pharmacokinetics of prucalopride in plasma after single oral administration to beagle dogs; assay type: in vivo; details: for Cmax / Tmax: dog, plasma, po, 2.5 mg/kg; for Cmax: read-out: Cmax peak plasma concentration of prucalopride; for Tmax: read-out: Tmax time to reach the peak plasma concentration of prucalopride
Method: Two male beagle dogs were dosed orally with 1 ml of a test formulation comprising 2.5 mg/kg of 4-amino-5-chloro-2,3-dihydro-N-[1-(3-methoxypropyl)-4-piperidinyl]-7-benzofuran-carboxamide (“prucalopride”).
After a wash-out period of four weeks, the same two dogs were dosed orally with 1 ml of a test formulation comprising 2.61 mg/kg of compound (1).
Blood samples were taken via the jugular vein immediately before dosing (blank sample) and at 0.25 h, 0.5 h, 1 h, 1.5 h, 2 h, 4 h, 6 h, 8 h, and 24 h after dosing. Aliquots of 10 ml were collected in EDTA tubes. Immediately after collection of the blood samples, plasma samples were prepared by centrifugation at approximately 1700×g for approximately 10 minutes.
Concentrations of prucalopride in the plasma samples were determined by LC/MS/MS. The quantification limit for prucalopride was 5.0 ng/ml.
Based on the individual plasma concentration-time data, using the actual sampling times, the following pharmacokinetic parameters were determined for prucalopride after oral administration of prucalopride and compound (1) and summarized in Table 1. • Cmax peak plasma concentration, determined by visual inspection of the data • Tmax time to reach the peak plasma concentration, determined by visual inspection of the data. • AUC0-∞ area under the plasma concentration-time extrapolated to infinity

[2] = system: colon; details: in words, cited from earlier work
[3] = target: 5-HT2A receptors (Homo sapiens, UniProt P28223); details: in words; cited from earlier work
Sequence of 5-HT2A receptors (P28223 whole entry): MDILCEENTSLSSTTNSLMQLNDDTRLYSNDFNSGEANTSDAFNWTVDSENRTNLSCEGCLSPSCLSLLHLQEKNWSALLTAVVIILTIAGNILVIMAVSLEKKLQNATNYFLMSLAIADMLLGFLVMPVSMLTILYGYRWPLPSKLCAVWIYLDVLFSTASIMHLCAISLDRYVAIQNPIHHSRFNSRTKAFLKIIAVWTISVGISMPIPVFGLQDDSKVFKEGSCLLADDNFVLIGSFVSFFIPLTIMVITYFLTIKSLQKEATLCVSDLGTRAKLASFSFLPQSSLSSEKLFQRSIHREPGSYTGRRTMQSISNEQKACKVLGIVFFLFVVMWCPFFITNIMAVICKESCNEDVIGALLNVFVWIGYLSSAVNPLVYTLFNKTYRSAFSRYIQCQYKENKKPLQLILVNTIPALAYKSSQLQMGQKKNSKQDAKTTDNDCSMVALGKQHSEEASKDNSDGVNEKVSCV

[4] = target: 5-HT4 receptors (Homo sapiens, UniProt Q13639); details: in words; cited from earlier work
Sequence of 5-HT4 receptors (Q13639 whole entry): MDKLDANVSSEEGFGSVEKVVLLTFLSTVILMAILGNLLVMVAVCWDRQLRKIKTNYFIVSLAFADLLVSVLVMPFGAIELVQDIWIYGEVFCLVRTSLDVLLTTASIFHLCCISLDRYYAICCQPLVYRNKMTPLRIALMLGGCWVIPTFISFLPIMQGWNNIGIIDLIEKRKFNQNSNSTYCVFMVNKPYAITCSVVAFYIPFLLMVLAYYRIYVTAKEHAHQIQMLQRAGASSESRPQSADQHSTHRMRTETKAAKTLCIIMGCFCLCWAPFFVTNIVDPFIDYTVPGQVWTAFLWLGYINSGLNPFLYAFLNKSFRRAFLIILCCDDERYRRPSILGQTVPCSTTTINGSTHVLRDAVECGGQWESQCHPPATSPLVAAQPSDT

[5] = target: T1, 5-HT3A receptors (Homo sapiens, UniProt P46098); details: in words; cited from earlier work
T1 sequence (P46098 24-478): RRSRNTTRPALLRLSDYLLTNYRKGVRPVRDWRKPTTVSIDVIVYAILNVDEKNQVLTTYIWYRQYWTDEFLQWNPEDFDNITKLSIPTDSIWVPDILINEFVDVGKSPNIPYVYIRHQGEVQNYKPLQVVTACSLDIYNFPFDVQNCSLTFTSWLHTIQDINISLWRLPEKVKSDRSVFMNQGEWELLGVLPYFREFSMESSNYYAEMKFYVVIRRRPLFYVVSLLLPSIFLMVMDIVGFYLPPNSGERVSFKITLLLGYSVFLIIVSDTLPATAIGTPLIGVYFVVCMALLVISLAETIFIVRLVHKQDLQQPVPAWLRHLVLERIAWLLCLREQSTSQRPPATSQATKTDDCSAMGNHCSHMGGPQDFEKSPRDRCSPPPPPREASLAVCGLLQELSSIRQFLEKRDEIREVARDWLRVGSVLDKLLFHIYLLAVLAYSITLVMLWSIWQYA

[6] = Dog 1, oral administration of compound (1) 2.61 mg/kg, prucalopride measured in plasma
[7] = Dog 2, oral administration of compound (1) 2.61 mg/kg, prucalopride measured in plasma
[8] = oral administration, dogs, in words
[9] = male, beagle, Dog 1, oral administration of prucalopride 2.5 mg/kg, prucalopride measured in plasma
[10] = male, beagle, Dog 2, oral administration of prucalopride 2.5 mg/kg, prucalopride measured in plasma

SMILES | AUC0-∞ area under the plasma concentration-time extrapolated to infinity, prucalopride [1, 6] | Cmax peak plasma concentration of prucalopride [1, 6] | Tmax time to reach the peak plasma concentration of prucalopride [1, 6] | AUC0-∞ area under the plasma concentration-time extrapolated to infinity, prucalopride [1, 7] | Cmax peak plasma concentration of prucalopride [1, 7] | Tmax time to reach the peak plasma concentration of prucalopride [1, 7] | peak plasma concentration Cmax of prucalopride, compared with oral prucalopride [1, 8] | systemic exposure to prucalopride, compared with oral prucalopride itself [1, 8] | colonic motility and defecation ([2]; animals) | giant contractions in the colon ([2]; propagated over the length of the colon as a peristaltic wave) | affinity for 5-HT2A receptors [3] | agonism of 5-HT4 receptors [4] | affinity for 5-HT3A receptors [5] | AUC0-∞ area under the plasma concentration-time extrapolated to infinity, prucalopride ([1]; Dog 2, oral administration of prucalopride 2.5 mg/kg, prucalopride measured in plasma) | Cmax [1, 9] | Tmax [1, 9] | Cmax [1, 10] | Tmax [1, 10] | AUC(0-inf) ([1]; male, beagle, Dog 1, oral administration of prucalopride 2.5 mg/kg, prucalopride measured in plasma, read-out: AUC0-∞ area under the plasma concentration-time extrapolated to infinity, prucalopride)
COCCC[N@+]1([O-])CC[C@@H](NC(=O)c2cc(Cl)c(N)c3c2OCC3)CC1.O [compound (1), cis-4-amino-5-chloro-2,3-dihydro-N-[1-(3-methoxypropyl)-4-piperidinyl]-7-benzofurancarboxamide, N-oxide monohydrate] | 2265 ng·h/mL | 222 ng/mL | 2.0 h | 4093 ng·h/mL | 488 ng/mL | 2.0 h | lower | substantially lower | – | – | – | – | – | – | – | – | – | – | –
COCCCN1CCC(NC(=O)c2cc(Cl)c(N)c3c2OCC3)CC1 [prucalopride, 4-amino-5-chloro-2,3-dihydro-N-[1-(3-methoxypropyl)-4-piperidinyl]-7-benzofuran-carboxamide] | – | – | – | – | – | – | – | – | stimulates colonic motility and defecation | induces giant contractions in the colon | no affinity | potent and selective agonist | no affinity | 4372 ng·h/mL | 556 ng/mL | 1 h | 660 ng/mL | 0.5 h | 4230 ng·h/mL
